Assays:
[1] = molecular target: Serine/threonine-protein kinase 32C (Homo sapiens) (UniProt Q86UX6); test: YANK3 DiscoveRx kinase panel; settings: Compound concentration 1.0 uM
[2] = molecular target: Proto-oncogene tyrosine-protein kinase receptor Ret (Homo sapiens) (UniProt P07949); test: RET DiscoveRx kinase panel; settings: Compound concentration 1.0 uM
[3] = molecular target: Tyrosine-protein kinase ITK/TSK (Homo sapiens) (UniProt Q08881); test: ITK DiscoveRx kinase panel; settings: Compound concentration 1.0 uM
[4] = molecular target: ALK tyrosine kinase receptor (Homo sapiens) (UniProt Q9UM73); test: ALK DiscoveRx kinase panel; settings: Compound concentration 1.0 uM
[5] = molecular target: Ephrin type-B receptor 3 (Homo sapiens) (UniProt P54753); test: EPHB3 DiscoveRx kinase panel; settings: Compound concentration 1.0 uM
[6] = molecular target: Wee1-like protein kinase (Homo sapiens) (UniProt P30291); test: WEE1 DiscoveRx kinase panel; settings: Compound concentration 1.0 uM
[7] = molecular target: Casein kinase I isoform gamma-2 (Homo sapiens) (UniProt P78368); test: CSNK1G2 DiscoveRx kinase panel; settings: Compound concentration 1.0 uM
[8] = molecular target: Vascular endothelial growth factor receptor 2 (Homo sapiens) (UniProt P35968); test: VEGFR2 DiscoveRx kinase panel; settings: Compound concentration 1.0 uM
[9] = molecular target: Tyrosine-protein kinase ABL1 (Homo sapiens) (UniProt P00519); test: ABL1-nonphosphorylated DiscoveRx kinase panel; settings: Compound concentration 1.0 uM
[10] = molecular target: STE20-like serine/threonine-protein kinase (Homo sapiens) (UniProt Q9H2G2); test: SLK DiscoveRx kinase panel; settings: Compound concentration 1.0 uM
[11] = molecular target: Bone morphogenetic protein receptor type-1B (Homo sapiens) (UniProt O00238); test: BMPR1B DiscoveRx kinase panel; settings: Compound concentration 1.0 uM
[12] = molecular target: Tyrosine-protein kinase Lck (Homo sapiens) (UniProt P06239); test: LCK DiscoveRx kinase panel; settings: Compound concentration 1.0 uM
[13] = molecular target: Testis-specific serine/threonine-protein kinase 1 (Homo sapiens) (UniProt Q9BXA7); test: TSSK1B DiscoveRx kinase panel; settings: Compound concentration 1.0 uM
[14] = molecular target: Alpha-1D adrenergic receptor (Homo sapiens) (UniProt P25100); test: Inhibition of Adrenergic alpha1D at 10 µM in the Eurofins-Panlabs radioligand binding assay (Eurofins_assay_203400); settings: Compound concentration 10.0 uM
[15] = molecular target: Tyrosine-protein kinase Srms (Homo sapiens) (UniProt Q9H3Y6); test: SRMS DiscoveRx kinase panel; settings: Compound concentration 1.0 uM
SUM149PT = test: SUM-149 cell line Proliferation assay; assay type: functional, Homo sapiens; settings: time 4 day
[16] = molecular target: GABA-A receptor; anion channel (Rattus norvegicus) (UniProt O09028+P15431+P18506+P18508+P19969+P20236+P23574+P23576+P28471+P28473+P30191+P62813+P63079+P63138+Q91ZM7+Q9ES14); settings: Compound concentration 10.0 uM
[17] = molecular target: Serine/threonine-protein kinase WNK3 (Homo sapiens) (UniProt Q9BYP7); test: WNK3 DiscoveRx kinase panel; settings: Compound concentration 1.0 uM
[18] = molecular target: Activin receptor type-1-like (Homo sapiens) (UniProt P37023); test: ACVRL1 DiscoveRx kinase panel; settings: Compound concentration 1.0 uM
[19] = molecular target: Serine/threonine-protein kinase 38-like (Homo sapiens) (UniProt Q9Y2H1); test: NDR2 DiscoveRx kinase panel; settings: Compound concentration 1.0 uM
[20] = molecular target: Beta-adrenergic receptor kinase 1 (Homo sapiens) (UniProt P25098); test: GRK2 DiscoveRx kinase panel; settings: Compound concentration 1.0 uM
[21] = molecular target: Macrophage colony-stimulating factor 1 receptor (Homo sapiens) (UniProt P07333); test: CSF1R DiscoveRx kinase panel; settings: Compound concentration 1.0 uM
[22] = molecular target: Mitogen-activated protein kinase 4 (Homo sapiens) (UniProt P31152); test: ERK4 DiscoveRx kinase panel; settings: Compound concentration 1.0 uM
[23] = molecular target: Serine/threonine-protein kinase 17A (Homo sapiens) (UniProt Q9UEE5); test: DRAK1 DiscoveRx kinase panel; settings: Compound concentration 1.0 uM
[24] = molecular target: C-X-C chemokine receptor type 2 (Homo sapiens) (UniProt P25025); test: Chemokine CXCR2 (IL-8RB) Eurofins-Panlabs radioligand binding assay; settings: Compound concentration 10.0 uM
[25] = molecular target: Activin receptor type-1 (Homo sapiens) (UniProt Q04771); test: ACVR1 DiscoveRx kinase panel; settings: Compound concentration 1.0 uM
[26] = molecular target: Ephrin type-A receptor 4 (Homo sapiens) (UniProt P54764); test: EPHA4 DiscoveRx kinase panel; settings: Compound concentration 1.0 uM
[27] = molecular target: Leucine-rich repeat serine/threonine-protein kinase 2 (Homo sapiens) (UniProt Q5S007); test: LRRK2 DiscoveRx kinase panel; settings: Compound concentration 1.0 uM
[28] = molecular target: Serine/threonine-protein kinase PAK 6 (Homo sapiens) (UniProt Q9NQU5); test: PAK6 DiscoveRx kinase panel; settings: Compound concentration 1.0 uM
Rattus norvegicus = organism: Rattus norvegicus; test: Inhibition of Glutamate, NMDA, Phencyclidine at 10 µM in the Eurofins-Panlabs radioligand binding assay (Eurofins_assay_233000); assay type: protein-complex assay; settings: Compound concentration 10.0 uM
[29] = molecular target: Substance-P receptor (Homo sapiens) (UniProt P25103); test: Inhibition of Tachykinin NK1 at 10 µM in the Eurofins-Panlabs radioligand binding assay (Eurofins_assay_255520); design: ligand concentration 0.8 nM; settings: Compound concentration 10.0 uM
[30] = molecular target: Tyrosine-protein kinase JAK3 (Homo sapiens) (UniProt P52333); test: JAK3(JH1domain-catalytic) DiscoveRx kinase panel; settings: Compound concentration 1.0 uM
[31] = molecular target: Ribosomal protein S6 kinase alpha-1 (Homo sapiens) (UniProt Q15418); test: RSK1(Kin.Dom.1-N-terminal) DiscoveRx kinase panel; settings: Compound concentration 1.0 uM
[32] = molecular target: Insulin receptor (Homo sapiens) (UniProt P06213); test: INSR DiscoveRx kinase panel; settings: Compound concentration 1.0 uM
[33] = molecular target: Melanocortin receptor 4 (Homo sapiens) (UniProt P32245); test: Melanocortin MC4 Eurofins-Panlabs radioligand binding assay; settings: Compound concentration 10.0 uM
[34] = molecular target: Serine/threonine-protein kinase Nek9 (Homo sapiens) (UniProt Q8TD19); test: NEK9 DiscoveRx kinase panel; settings: Compound concentration 1.0 uM
[35] = molecular target: MAP kinase-activated protein kinase 2 (Homo sapiens) (UniProt P49137); test: MAPKAPK2 DiscoveRx kinase panel; settings: Compound concentration 1.0 uM
[36] = molecular target: Bone morphogenetic protein receptor type-1A (Homo sapiens) (UniProt P36894); test: BMPR1A DiscoveRx kinase panel; settings: Compound concentration 1.0 uM
[37] = molecular target: voltage-gated sodium channel, site 2 (Rattus norvegicus, UniProt F1LQQ7+O08562+O88420+O88457+P04774+P04775+P08104+P15389+P15390+Q62968); test: Inhibition of Sodium Channel, Site 2 at 10 µM in the Eurofins-Panlabs radioligand binding assay (Eurofins_assay_279510); assay type: protein assay; design: ligand concentration 5 nM, non-specific ligand with concentration 100 µM Veratridine, incubation time 60 min, incubation temperature 37 °C; settings: male, Wistar, rat whole brain (except cerebellum) membranes, probe [3H] Batrachotoxinin, compound concentration 10 uM
[38] = molecular target: Serine/threonine-protein kinase MARK1 (Homo sapiens) (UniProt Q9P0L2); test: MARK1 DiscoveRx kinase panel; settings: Compound concentration 1.0 uM
[39] = molecular target: Ephrin type-B receptor 6 (Homo sapiens) (UniProt O15197); test: EPHB6 DiscoveRx kinase panel; settings: Compound concentration 1.0 uM
[40] = molecular target: Mitogen-activated protein kinase kinase kinase 6 (Homo sapiens) (UniProt O95382); test: ASK2 DiscoveRx kinase panel; settings: Compound concentration 1.0 uM
[41] = molecular target: cGMP-dependent protein kinase 2 (Homo sapiens) (UniProt Q13237); test: PRKG2 DiscoveRx kinase panel; settings: Compound concentration 1.0 uM
[42] = molecular target: Tyrosine-protein kinase Lyn (Homo sapiens) (UniProt P07948); test: LYN DiscoveRx kinase panel; settings: Compound concentration 1.0 uM
[43] = molecular target: Ribosomal protein S6 kinase alpha-2 (Homo sapiens) (UniProt Q15349); test: RSK3(Kin.Dom.2-C-terminal) DiscoveRx kinase panel; settings: Compound concentration 1.0 uM
[44] = molecular target: Dual specificity mitogen-activated protein kinase kinase 1 (Homo sapiens) (UniProt Q02750); test: MEK1 DiscoveRx kinase panel; settings: Compound concentration 1.0 uM

Chain of Beta-adrenergic receptor kinase 1 (Homo sapiens) (P25098 whole entry): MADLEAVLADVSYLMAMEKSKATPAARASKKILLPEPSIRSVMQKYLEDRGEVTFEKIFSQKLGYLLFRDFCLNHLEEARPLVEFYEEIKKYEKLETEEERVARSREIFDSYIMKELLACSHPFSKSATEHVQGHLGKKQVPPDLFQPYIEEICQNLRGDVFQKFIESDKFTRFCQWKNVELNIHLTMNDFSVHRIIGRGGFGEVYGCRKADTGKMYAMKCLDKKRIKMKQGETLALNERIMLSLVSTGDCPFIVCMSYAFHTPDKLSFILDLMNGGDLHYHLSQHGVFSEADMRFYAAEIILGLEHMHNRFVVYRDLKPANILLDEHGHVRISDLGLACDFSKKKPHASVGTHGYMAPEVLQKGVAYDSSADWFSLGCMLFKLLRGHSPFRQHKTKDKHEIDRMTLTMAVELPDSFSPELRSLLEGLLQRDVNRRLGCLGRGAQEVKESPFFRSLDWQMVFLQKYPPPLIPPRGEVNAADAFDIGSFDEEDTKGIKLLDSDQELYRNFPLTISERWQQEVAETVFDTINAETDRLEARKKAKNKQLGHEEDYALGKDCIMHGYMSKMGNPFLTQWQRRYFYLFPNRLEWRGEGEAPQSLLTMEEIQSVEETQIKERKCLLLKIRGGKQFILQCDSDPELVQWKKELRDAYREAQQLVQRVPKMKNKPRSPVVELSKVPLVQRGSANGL
Chain of Ephrin type-B receptor 6 (Homo sapiens) (O15197 whole entry): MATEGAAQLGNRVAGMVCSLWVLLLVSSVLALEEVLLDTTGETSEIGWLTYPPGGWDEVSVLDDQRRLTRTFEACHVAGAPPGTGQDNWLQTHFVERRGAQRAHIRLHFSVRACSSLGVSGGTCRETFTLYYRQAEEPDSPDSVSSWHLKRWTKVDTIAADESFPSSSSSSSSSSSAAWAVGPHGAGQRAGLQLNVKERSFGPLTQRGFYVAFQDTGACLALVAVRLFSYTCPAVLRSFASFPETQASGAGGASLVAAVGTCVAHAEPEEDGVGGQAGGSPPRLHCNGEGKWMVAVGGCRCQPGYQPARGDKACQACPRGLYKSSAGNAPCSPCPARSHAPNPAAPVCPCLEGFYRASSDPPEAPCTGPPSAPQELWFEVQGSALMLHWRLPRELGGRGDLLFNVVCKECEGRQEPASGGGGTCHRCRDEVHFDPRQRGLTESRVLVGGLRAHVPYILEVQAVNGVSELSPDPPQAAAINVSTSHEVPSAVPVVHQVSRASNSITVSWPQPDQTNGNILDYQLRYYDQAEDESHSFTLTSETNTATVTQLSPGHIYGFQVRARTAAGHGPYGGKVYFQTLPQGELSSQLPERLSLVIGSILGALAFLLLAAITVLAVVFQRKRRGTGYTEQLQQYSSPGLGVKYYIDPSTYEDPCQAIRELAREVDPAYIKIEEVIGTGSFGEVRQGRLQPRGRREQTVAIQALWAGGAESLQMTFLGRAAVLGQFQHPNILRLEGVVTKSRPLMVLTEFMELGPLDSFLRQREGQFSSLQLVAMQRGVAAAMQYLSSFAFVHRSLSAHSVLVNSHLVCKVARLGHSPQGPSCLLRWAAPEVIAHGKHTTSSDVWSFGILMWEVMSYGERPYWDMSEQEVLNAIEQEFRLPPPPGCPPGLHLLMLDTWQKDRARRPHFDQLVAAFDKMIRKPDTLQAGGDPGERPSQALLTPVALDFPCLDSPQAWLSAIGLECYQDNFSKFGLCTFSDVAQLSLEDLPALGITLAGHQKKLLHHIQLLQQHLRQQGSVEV
Chain of Serine/threonine-protein kinase 17A (Homo sapiens) (Q9UEE5 whole entry): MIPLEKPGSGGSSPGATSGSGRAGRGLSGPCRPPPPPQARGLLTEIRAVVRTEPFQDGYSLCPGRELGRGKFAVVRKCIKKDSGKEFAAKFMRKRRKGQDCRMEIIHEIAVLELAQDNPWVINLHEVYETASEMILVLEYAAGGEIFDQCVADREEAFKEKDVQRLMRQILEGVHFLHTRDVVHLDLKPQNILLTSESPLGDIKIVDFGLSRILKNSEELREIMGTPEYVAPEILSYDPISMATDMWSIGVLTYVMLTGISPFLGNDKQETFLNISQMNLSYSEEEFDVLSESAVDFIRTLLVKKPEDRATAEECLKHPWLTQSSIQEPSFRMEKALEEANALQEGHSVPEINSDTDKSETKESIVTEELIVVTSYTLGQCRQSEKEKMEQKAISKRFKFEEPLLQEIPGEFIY
Chain of Tyrosine-protein kinase ABL1 (Homo sapiens) (P00519 whole entry): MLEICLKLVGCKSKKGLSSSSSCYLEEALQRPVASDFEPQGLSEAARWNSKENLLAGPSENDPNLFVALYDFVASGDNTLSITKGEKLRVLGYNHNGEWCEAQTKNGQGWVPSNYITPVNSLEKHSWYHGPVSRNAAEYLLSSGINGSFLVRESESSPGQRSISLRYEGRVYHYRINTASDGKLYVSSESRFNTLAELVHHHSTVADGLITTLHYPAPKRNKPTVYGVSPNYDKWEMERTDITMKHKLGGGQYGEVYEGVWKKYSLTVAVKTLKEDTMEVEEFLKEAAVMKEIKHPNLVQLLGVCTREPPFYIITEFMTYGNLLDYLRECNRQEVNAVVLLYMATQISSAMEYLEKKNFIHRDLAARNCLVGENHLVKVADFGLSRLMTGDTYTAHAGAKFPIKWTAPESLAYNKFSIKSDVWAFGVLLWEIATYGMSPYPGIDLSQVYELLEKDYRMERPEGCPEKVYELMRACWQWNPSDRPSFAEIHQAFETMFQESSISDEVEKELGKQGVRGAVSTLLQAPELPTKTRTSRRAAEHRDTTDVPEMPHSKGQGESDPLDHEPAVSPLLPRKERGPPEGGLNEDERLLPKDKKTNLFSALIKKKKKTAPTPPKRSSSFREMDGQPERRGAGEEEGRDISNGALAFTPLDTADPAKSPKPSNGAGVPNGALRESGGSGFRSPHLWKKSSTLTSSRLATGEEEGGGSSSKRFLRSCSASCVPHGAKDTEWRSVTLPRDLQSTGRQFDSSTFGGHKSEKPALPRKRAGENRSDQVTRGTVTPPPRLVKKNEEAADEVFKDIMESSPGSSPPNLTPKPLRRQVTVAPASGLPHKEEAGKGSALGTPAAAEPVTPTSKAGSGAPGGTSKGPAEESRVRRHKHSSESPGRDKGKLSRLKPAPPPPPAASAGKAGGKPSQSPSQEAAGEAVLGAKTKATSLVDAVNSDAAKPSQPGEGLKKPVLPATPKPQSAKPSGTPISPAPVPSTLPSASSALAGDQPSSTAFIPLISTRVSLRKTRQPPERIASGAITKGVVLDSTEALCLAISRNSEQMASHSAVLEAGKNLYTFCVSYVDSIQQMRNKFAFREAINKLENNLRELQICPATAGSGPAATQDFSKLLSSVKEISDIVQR
Chain of Wee1-like protein kinase (Homo sapiens) (P30291 whole entry, looked up, canonical isoform): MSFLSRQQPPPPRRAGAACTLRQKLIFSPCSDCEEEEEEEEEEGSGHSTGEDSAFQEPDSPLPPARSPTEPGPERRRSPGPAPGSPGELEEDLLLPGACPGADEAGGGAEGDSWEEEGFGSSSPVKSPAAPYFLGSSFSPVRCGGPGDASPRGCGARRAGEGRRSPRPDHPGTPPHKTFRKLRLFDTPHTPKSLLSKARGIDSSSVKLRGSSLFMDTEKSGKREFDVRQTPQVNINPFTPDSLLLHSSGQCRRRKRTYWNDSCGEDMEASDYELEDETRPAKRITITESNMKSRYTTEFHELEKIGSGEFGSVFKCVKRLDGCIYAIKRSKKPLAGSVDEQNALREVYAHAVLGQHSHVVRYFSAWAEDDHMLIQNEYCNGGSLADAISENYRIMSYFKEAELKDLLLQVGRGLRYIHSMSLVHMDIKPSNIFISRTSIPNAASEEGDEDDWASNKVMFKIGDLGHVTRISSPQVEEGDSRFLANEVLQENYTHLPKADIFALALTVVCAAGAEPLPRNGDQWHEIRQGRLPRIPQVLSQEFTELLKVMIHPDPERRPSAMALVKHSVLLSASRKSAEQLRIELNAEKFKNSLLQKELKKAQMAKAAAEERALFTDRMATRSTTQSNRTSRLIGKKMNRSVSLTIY
Chain of Alpha-1D adrenergic receptor (Homo sapiens) (P25100 whole entry): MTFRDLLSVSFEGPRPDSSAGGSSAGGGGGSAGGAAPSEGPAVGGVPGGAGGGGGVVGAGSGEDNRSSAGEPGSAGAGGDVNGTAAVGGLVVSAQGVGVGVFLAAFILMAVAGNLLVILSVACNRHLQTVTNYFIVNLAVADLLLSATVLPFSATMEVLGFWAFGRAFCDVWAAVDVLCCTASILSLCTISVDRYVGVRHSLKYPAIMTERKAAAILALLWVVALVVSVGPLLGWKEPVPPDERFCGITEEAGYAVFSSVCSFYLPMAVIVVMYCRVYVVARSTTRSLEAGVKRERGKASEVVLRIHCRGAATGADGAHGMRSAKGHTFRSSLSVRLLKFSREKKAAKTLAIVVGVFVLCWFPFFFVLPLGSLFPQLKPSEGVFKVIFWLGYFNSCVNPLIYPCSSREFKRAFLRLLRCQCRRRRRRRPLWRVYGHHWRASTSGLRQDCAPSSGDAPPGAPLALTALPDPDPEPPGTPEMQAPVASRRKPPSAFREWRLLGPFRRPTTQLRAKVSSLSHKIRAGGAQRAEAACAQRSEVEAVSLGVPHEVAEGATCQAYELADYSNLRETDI
Chain of Substance-P receptor (Homo sapiens) (P25103 whole entry): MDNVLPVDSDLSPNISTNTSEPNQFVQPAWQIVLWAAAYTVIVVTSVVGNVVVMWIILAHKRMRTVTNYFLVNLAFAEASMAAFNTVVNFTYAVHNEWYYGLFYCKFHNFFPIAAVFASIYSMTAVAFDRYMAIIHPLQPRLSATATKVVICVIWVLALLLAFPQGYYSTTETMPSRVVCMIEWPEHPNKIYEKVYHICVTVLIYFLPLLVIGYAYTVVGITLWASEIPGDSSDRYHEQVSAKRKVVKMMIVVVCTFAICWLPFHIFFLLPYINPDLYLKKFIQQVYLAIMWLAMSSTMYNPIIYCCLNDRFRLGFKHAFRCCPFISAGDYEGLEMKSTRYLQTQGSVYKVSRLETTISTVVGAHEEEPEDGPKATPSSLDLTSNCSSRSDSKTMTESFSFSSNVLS

COc1cnccc1Nc1nc(-c2nn(Cc3c(F)cc(OCCO)cc3F)c3ccccc23)ncc1OC gave a residual activity [1] of 72%, a residual activity [2] of 97% and a residual activity [3] of 100%. For the same compound, the residual activity [4] was 100%, the residual activity [5] was 95% and the residual activity [6] was 100%. The residual activity [7] was 78%, the residual activity [8] was 100% and the residual activity [9] was 87%. The residual activity [10] was 100%, the residual activity [11] was 100% and the residual activity [12] was 100%. For the same compound, the residual activity [13] was 100%, the inhibition [14] was 24% and the residual activity [15] was 100%. For the same compound, the “Cell Proliferation IC50” value (SUM149PT) was 640 nM, the inhibition [16] was 24.9% and the residual activity [17] was 87%. The residual activity [18] was 69%, the residual activity [19] was 78% and the residual activity [20] was 100%. The residual activity [21] was 99%, the residual activity [22] was 96% and the residual activity [23] was 95%. The inhibition [24] was -3%, the residual activity [25] was 98% and the residual activity [26] was 96%. The residual activity [27] was 100%, the residual activity [28] was 79% and the inhibition (Rattus norvegicus) was 2%. The inhibition [29] was 19%, the residual activity [30] was 87% and the residual activity [31] was 80%. For the same compound, the residual activity [32] was 97%, the inhibition [33] was 10% and the residual activity [34] was 82%. It also gave a residual activity [35] of 92%, a residual activity [36] of 74% and an inhibition at 60 min, 10 µM [37] of 53%. It also gave a residual activity [38] of 97%, a residual activity [39] of 100% and a residual activity [40] of 82%. For the same compound, the residual activity [41] was 95%, the residual activity [42] was 100% and the residual activity [43] was 100%. It also gave a residual activity [44] of 97%.

— ChEMBL document CHEMBL5058649, “Data for DCP probe BAY 1816032” (2022)
